Consider seven compounds from patent publication US8779195B2, “Polyamine derivatives” (Nihon University, priority 2006, dated 2014).

The target in one series is NMDA receptor NR1/NR2B (Rattus norvegicus, UniProt P35439+Q00960). Kind of series: two-electrode voltage clamp, NMDA receptor activity inhibition in Xenopus oocytes (NR1/NR2B). It is filed as cell-based. The method, then:
(§1) To confirm pharmacological function of TsPD, TsPDG, TsSPMG, BsPDG, and Tosyl-SPM synthesized above (synthesized by the method described in Patent Document 1 mentioned above), the effect of these compounds on NMDA receptor was measured by a two-electrode voltage clamp method.
(§2) This method can be carried out in accordance with the method of Masuko et al. (Masuko T. et al., Mol. Pharmacol. 55: 957-969 (1999); Masuko T. et al., Nuerosci. Lett. 371: 30-33 (2004); Masuko T. et al., Chem. Pharm. Bull. 53 (4) 444-447 (2005)). To the oocyte, cRNAs of an NR1 subunit and an NR2 subunit of NMDA receptor were injected in a ratio of 1:5 (NR1: 0.1 to 4 ng, NR2: 0.5 to 20 ng) to obtain the oocyte in which NMDA receptor was expressed.
(§3) The oocytes were cultured in a medium (96 mM NaCl, 2 mM KCl, 1 mM MgCl2, 1.8 mM CaCl2, 5 mM Na-HEPES, 2.5 mM sodium pyruvate, 50 μg/ml gentamicin, pH=7.5) at 19° C. for 1 to 3 days.
(§4) At the measurement date, K^+-BAPTA was injected in the oocytes and then, the activity of the receptors was measured by the two-electrode voltage clamp method (described later) using a recording buffer (96 mM NaCl, 2 mM KCl, 1.8 mM BaCl2, 10 mM Na-HEPES, pH=7.5).
(§5) Note that there is a single type of gene in NR1 and 4 types of genes, namely NR2A to NR2D, in NR2. There are NR1/NR2A, NR1/NR2B, NR1/NR2C and NR1/NR2D subtypes in NMDA receptor. However, NR1/NR2A and NR1/NR2B subtypes are conceivably present widely in the brain. Therefore, the activity inhibitory effects on these two types were measured in the following experiments.
(§6) The two-electrode voltage clamp method was carried out in accordance with the method of Williams et al. (Williams, K. et al., Mol. Pharmacol 38: 85-108). The current flowing through the entire membrane of the oocyte was measured by an amplifier CEZ-1250 (Nihon Kohden Corporation) for the two-electrode voltage clamp method. The electrode was filled with 3M potassium chloride and the resistance was set at 0.4 to 4 MΩ. In measurement, glutamate and glycine were added as NMDA agonists.
(§7) To the oocytes obtained by the aforementioned method, various concentrations of TsPD, TsPDG, TsSPMG, BsPDG and Tosyl-SPM were added. The activity inhibitory effect on […] subtypes was measured at a fixed voltage (Vh) of −70 mV (resting membrane potential).
(§8) As a comparative example, the same measurement is performed by use of Dansyl-SPM represented by the aforementioned formula (III).
(§9) Values obtained from 4 to 5 oocytes were averaged. The average value±S.E.M. was regarded as a measurement value.
In general terms: In two-electrode clamp one electrode senses voltage and the other passes current.

A short description of series [1]: cytotoxicity test, Alamar blue assay. In kind it is cell-based. To be noted: human, 24 hours exposure, read-out: IC50 (concentration at which respiratory activity is 50%). The method, then:
A cytotoxicity test was carried out with respect to TsPD, TsPDG, TsSPMG, BsPDG and Tosyl-SPM. Also in this test, Dansyl-SPM was used in a comparative example.
SH-SY5Y neuroblastoma cell line was purchased from the American Type Culture Collection. The cells were cultured in a D-MEM medium to which penicillin (100 U/ml), streptomycin (100 U/ml) and inactivated fetal bovine serum (Gibco) were added. The cells were maintained in a CO2 incubator at 37° C. and kept under the condition of 95% air and 5% CO2.
Undifferentiated SH-SY5Y cells were exposed to various concentrations of polyamine derivatives for 24 hours. An Alamar blue stock solution was transferred to a 96 well plate. The final assay volume was set at 100 μl/well and the final concentration of the Alamar blue was set at 10%. Six hours later, reduced Alamar blue was measured at a wavelength of 570 nm (FIG. 3). A survival rate (%) of the cells exposed to a polyamine derivative for 24 hours was expressed by a relative value of respiratory activity of the cells based on respiratory activity (100%) of mitochondria of the cells to which no drug is added.

The next series concerns the target NMDA receptor NR1/NR2A (Rattus norvegicus, UniProt P35439+Q00959). Briefly: two-electrode voltage clamp, NMDA receptor activity inhibition in Xenopus oocytes (NR1/NR2A). In kind it is cell-based. The method, then: as §1, §2, §3, §4, §5, §6, §7, §8, §9
Series [2] deals with mouse convulsion induced by NMDA. Kind of series: suppression of NMDA-induced convulsion in mouse (permeability through the blood brain barrier). It is filed as in vivo. The method, then: Polyamine derivatives according to the present invention were evaluated for permeability through the blood brain barrier.
When 100 mg/kg NMDA was injected into a mouse abdominal cavity, convulsion is induced several minutes later. Then, the convulsion suppression effect of a polyamine derivative on mouse convulsion induced by NMDA was investigated.
When 0.5 mg/kg TsPDG and BsPDG were intravenously administered into a mouse 30 minutes before NMDA injection, the time of convulsion induced by NMDA was reduced by 43% and 39%. This reduction rate of convulsion time was equivalent to that (38%) when 10 mg/kg memantine intravenously administered.

The test system of series [3] is Rat hippocampal primary culture cells. Kind of series: protective effect against nerve cell death induced by NMDA (lactate dehydrogenase release). It is filed as cell-based. The conditions noted are these: NMDA exposure one hour, LDH release after 24 hours. The method, then:
(§10) Next, the protective effect of polyamine derivatives against nerve cell death due to excitotoxicity was investigated. Rat hippocampal primary culture cells were cultured for seven days and exposed to glutamate or NMDA for one hour. Nerve cell death induced in this manner was evaluated based on lactate dehydrogenase release after 24 hours as an index, significant cell death was observed. In addition, it was observed that nerve cell death caused by glutamate and NMDA exposure has concentration dependency.
Background: Release of lactate dehydrogenase indicates damage to the cell membrane.

For series [4] the test system is unchanged. Kind of series: protective effect against nerve cell death induced by glutamate (lactate dehydrogenase release). It is filed as cell-based. To be noted: glutamate exposure one hour, LDH release after 24 hours. The method, then:
as §10

A further series deals with NMDA receptor. The conditions noted are these: read-out: IC50 of memantine (NMDA receptor); cited from earlier work.
Where [5] appears, read: Xenopus oocytes, Vh -70 mV, glutamate and glycine as agonists, mean ± S.E.M. of 4 to 5 oocytes, read-out: IC50 NR1/NR2B.
Setting [6] is: undifferentiated SH-SY5Y neuroblastoma cells.
[7] abbreviates: Xenopus oocytes, Vh -70 mV, glutamate and glycine as agonists, mean ± S.E.M. of 4 to 5 oocytes, read-out: IC50 NR1/NR2A.
Where [8] appears, read: 0.5 mg/kg intravenously 30 minutes before 100 mg/kg NMDA i.p.

Structures can show the parent of a compound that is named as a salt. Where two headings read alike, the source gives them in different places.

NMDA receptor NR1/NR2A, sequence (Q00959 23-1464, other chains not shown): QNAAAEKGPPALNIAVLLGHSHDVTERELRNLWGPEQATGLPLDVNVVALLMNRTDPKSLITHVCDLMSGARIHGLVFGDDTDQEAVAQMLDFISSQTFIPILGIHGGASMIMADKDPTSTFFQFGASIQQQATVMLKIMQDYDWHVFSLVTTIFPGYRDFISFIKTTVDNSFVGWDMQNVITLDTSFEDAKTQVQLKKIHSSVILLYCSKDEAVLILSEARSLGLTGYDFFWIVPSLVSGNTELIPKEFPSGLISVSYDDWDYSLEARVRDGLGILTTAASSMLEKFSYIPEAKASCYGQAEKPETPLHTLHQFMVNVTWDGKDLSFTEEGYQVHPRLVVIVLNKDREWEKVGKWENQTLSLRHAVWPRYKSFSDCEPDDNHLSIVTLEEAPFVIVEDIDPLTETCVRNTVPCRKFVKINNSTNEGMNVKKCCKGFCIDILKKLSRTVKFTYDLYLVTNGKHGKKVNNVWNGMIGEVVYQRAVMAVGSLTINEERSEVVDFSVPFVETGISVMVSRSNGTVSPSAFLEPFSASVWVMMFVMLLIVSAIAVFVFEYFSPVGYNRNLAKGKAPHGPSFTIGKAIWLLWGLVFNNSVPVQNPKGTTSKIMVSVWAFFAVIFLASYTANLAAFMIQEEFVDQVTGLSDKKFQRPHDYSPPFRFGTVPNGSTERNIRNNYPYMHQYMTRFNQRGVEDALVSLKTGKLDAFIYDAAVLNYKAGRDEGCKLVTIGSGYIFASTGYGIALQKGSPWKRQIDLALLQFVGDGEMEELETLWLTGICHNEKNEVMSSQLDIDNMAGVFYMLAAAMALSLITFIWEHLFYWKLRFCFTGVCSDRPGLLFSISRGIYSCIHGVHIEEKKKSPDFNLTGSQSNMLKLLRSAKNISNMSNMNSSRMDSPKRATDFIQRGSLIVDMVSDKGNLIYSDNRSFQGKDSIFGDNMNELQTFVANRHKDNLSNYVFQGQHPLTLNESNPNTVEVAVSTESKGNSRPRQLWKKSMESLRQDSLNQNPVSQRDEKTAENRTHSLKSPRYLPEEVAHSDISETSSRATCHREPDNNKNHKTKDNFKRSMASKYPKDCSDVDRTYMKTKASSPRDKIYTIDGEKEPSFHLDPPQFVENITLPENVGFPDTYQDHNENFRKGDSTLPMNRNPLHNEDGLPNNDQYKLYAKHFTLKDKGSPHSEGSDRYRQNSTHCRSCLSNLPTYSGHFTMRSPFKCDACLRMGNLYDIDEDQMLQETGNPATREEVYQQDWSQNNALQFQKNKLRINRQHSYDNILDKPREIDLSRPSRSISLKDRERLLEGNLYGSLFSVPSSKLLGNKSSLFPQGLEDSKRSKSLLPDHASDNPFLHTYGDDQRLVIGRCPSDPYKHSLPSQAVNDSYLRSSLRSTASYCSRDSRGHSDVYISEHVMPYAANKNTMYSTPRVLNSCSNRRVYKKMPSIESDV
NMDA receptor NR1/NR2B, sequence (Q00960 27-1482, other chains not shown): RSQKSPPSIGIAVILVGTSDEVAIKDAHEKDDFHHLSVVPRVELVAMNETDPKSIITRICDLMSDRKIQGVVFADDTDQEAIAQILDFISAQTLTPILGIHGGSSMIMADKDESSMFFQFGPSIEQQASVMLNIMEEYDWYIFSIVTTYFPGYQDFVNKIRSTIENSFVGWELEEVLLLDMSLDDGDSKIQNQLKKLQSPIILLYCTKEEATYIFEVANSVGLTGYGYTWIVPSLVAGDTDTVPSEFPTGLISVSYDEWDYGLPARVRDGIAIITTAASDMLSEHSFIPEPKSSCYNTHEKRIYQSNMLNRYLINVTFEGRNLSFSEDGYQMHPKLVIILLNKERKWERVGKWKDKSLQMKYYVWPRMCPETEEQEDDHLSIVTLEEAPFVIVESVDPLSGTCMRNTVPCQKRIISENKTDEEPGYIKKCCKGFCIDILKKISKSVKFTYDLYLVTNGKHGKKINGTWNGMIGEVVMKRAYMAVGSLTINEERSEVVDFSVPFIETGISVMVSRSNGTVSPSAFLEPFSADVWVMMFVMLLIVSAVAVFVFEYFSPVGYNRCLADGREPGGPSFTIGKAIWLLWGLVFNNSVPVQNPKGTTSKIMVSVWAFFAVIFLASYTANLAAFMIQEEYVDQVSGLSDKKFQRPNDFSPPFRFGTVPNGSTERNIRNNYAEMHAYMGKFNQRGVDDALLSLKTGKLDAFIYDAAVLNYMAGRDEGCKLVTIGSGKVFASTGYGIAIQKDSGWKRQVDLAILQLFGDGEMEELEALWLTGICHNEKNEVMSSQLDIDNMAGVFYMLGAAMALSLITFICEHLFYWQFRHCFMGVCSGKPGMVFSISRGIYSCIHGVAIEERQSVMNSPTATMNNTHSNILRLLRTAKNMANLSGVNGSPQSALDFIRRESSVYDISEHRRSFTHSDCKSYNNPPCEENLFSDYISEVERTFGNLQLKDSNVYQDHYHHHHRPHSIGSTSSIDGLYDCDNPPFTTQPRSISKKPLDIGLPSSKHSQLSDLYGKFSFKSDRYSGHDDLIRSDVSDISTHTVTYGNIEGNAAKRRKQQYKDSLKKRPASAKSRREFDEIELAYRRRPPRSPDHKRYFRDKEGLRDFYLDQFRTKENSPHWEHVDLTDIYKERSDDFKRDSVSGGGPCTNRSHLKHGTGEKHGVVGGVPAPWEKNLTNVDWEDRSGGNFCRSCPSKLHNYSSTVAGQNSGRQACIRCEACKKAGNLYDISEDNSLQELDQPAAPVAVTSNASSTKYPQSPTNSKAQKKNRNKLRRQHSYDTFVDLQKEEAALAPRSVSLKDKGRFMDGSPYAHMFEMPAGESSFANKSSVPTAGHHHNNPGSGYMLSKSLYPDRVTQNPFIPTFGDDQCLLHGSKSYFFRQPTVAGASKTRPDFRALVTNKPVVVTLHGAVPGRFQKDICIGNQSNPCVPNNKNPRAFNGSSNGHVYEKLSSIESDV

For the compound `CN(C)c1cccc2c(S(=O)(=O)NCCCNCCCCNCCCN)cccc12` [Dansyl-SPM, N^1-Dansyl-Spermine, reference compound], the IC50 at NMDA receptor NR1/NR2B (setting [5]) worked out at 310 ± 30 nM; at NMDA receptor NR1/NR2A (setting [7]), 270 ± 30 nM. In series [1] (setting [6]), the IC50 at 24 h was found to be 0.03 ± 0.001 mM.
`CCCCS(=O)(=O)NCCCCNCCCCNCCCCNC(=N)N` [BsPDG]: the values for the IC50 at NMDA receptor NR1/NR2B (setting [5]) and on NMDA receptor NR1/NR2A (setting [7]) were 24 ± 3 nM and 15 ± 1 nM, respectively. The IC50 at 24 h in series [1] (undifferentiated SH-SY5Y cells) was over 3 mM. Moreover, the “reduction of the time of convulsion induced by NMDA” value (“reduction” below) in series [2] (setting [8]) is reported as 39%. In addition, in series [3] (1 μM compound), the “suppression of nerve cell death induced by NMDA” value (“suppression … by NMDA” for short) was “completely suppressed”. Besides, the “suppression of nerve cell death induced by glutamate” value (from here on “suppression … by glutamate”) in series [4] (1 μM compound) was “significantly suppressed”.
As for `Cc1ccc(S(=O)(=O)NCCCCNCCCCNCCCCN)cc1` [TsPD], the IC50 on NMDA receptor NR1/NR2B (setting [5]) is 150 ± 1 nM; on NMDA receptor NR1/NR2A (setting [7]), 74 ± 3 nM. Further, the IC50 at 24 h in series [1] (undifferentiated SH-SY5Y cells) stood at 1.83 ± 0.046 mM. In addition, in series [3] (10 μM compound), the “suppression … by NMDA” value is “completely suppressed”. In series [4] (10 μM compound), the “suppression … by glutamate” value is given as “significantly suppressed”.
Regarding `Cc1ccc(S(=O)(=O)NCCCNCCCCNCCCN)cc1` [Tosyl-SPM, N^1-Tosyl-Spermine, reference compound], the IC50 at NMDA receptor NR1/NR2B (setting [5]) came out at 400 ± 10 nM; at NMDA receptor NR1/NR2A (setting [7]), 350 ± 10 nM. Further, the IC50 at 24 h in series [1] (setting [6]) was 0.336 ± 0.007 mM.
On to `Cc1ccc(S(=O)(=O)NCCCNCCCCNCCCNC(=N)N)cc1` [TsSPMG], for which the values for the IC50 on NMDA receptor NR1/NR2B (setting [5]) and on NMDA receptor NR1/NR2A (setting [7]) were 370 ± 50 nM and 320 ± 30 nM, respectively. In addition, the IC50 at 24 h in series [1] (undifferentiated SH-SY5Y cells) worked out at 2.64 ± 0.037 mM.
`CC12CC3CC(C)(C1)CC(N)(C3)C2` [memantine, memantine hydrochloride, reference compound]: the “reduction” value in series [2] (10 mg/kg intravenously) is on record as 38%. Besides, the IC50 at NMDA receptor was 1000 nM.
Take `Cc1ccc(S(=O)(=O)NCCCCNCCCCNCCCCNC(=N)N)cc1` [TsPDG]: the IC50 on NMDA receptor NR1/NR2B turned out to be 27 ± 2 nM; on NMDA receptor NR1/NR2A, 17 ± 2 nM. Also, the IC50 at 24 h in series [1] (undifferentiated SH-SY5Y cells) was 2.87 ± 0.066 mM. Also, in series [2] (setting [8]), the “reduction” value is recorded as 43%. For the same compound, the “suppression … by NMDA” value in series [3] (1 μM compound) is “completely suppressed”. Besides, in series [4] (1 μM compound), the “suppression … by glutamate” value is on record as “significantly suppressed”.
